In series [1] the test system is Amygdala kindled rats (generalized and focal seizures). The experiment in a line: Seizure suppression in amygdala kindled rats. The series is classed as in vivo, rat. Particulars: IP; for suppression of focal seizures: suppressed = absence of EEG seizure activity lasting more than 4 seconds, FIGS. 1B, 2B; for suppression of generalized seizures: suppressed = absence of stage 3 or higher seizure (Racine scale), FIGS. 1A, 2A.
Procedure: Preclinical studies were performed to study the effects of CBD or THC alone, or CBD in combination with THC, on seizures. Amygdala kindled rats were used as a model for generalized and focal seizures in these studies.
Kindling Procedure: An insulated bipolar electrode was implanted in the right basolateral amygdala of male Sprague Dawley rats (50-55 days old). Two weeks following implantation, the rats began daily kindling. The stimulation used for kindling was a 1 second train of biphasic 60 Hz square wave pulses at an intensity of 400 micro-amps, once per day. Both the focal afterdischarge (AD) and convulsive behavior were monitored for a minimum of 30 seconds after stimulation or until an observed seizure ended. Rats were stimulated once daily until ten stage 5 Racine scale seizures have been generated, after which they are considered fully kindled (typically 3-4 weeks).
Seizure Scoring: The focal seizures were defined by observing the afterdischarge (AD) recorded by electroencephalogram (EEG) via the implanted electrode. The focal AD can last as long as 1-2 minutes post stimulation. The focal AD is not necessarily accompanied by a secondary generalized motor seizure, especially early in the kindling process. Early behavioural signs may include the cessation of behaviour or blinking. After sufficient kindling has been induced, generalized motor events of seizure generalization began to occur. These events were rated using the Racine scale. The stages are as follows: Stage 1—facial clonus; Stage 2—head nodding; Stage 3—forelimb clonus; Stage 4—forelimb clonus and rearing on hindlimbs; Stage 5—loss of postural control (rearing and following over).
Seizure Threshold Testing: Two days after the 10th stage 5 seizure was recorded, the animal's seizure threshold was tested using ascending series technique. The process was started at an intensity of 20 micro-amps, which was increased by 20 micro-amps every two minutes until an AD was produced. The seizure threshold is defined as the current needed to produce the AD.
Stability Testing: After seizure thresholds were determined, the animals underwent stability testing to confirm the reliability of the threshold. The animals were stimulated at 25% above the determined threshold 3 times per week for 2 weeks. If seizures were consistently evoked at this level of stimulation, the rat was considered stable. […]
The effects of: a) CBD alone (0, 20, 40, 80, 160, 320 mg/kg; 10 subjects per dose); b) THC alone (0, 5, 10, 20, 40, 80 mg/kg; 10 subjects per dose); or c) CBD+THC (15:1) (CBD dose of 0, 20, 40, 80, 160, 320 mg/kg; 10 subjects per dose), were tested. […] A generalized seizure was considered to be suppressed if there was an absence of stage 3 or higher seizure, assessed using the Racine scale. […]

The nature of series [2]: Toxicity assessment of kindled rats before stimulation (Loscher ataxia scale). The series is classed as in vivo, rat. The note with it: IP. As for the experimental part:
Before each round of drug testing stimulation, the rats were assessed for motor toxicity using the Loscher ataxia scale. This scale is used to determine motor impairment. The scale rankings are as follows: Stage 1—slight ataxia in hind legs, no decrease in abdominal muscle tone; Stage 2—more pronounced ataxia, slight decrease in abdominal muscle tone, flat body position; Stage 3—increased ataxia, continued decrease in abdominal muscle tone, more pronounced flat body posture, splayed hind legs, and crawling during forward motion; Stage 4—marked ataxia, loss of balance during forward motion, loss of abdominal muscle tone, flat body posture, splayed hind legs, and dragging during forward motion; Stage 5—very marked ataxia, frequent loss of balance during forward motion, loss of abdominal muscle tone.

The nature of series [3]: Pharmacokinetics of orally administered CBD. Format: in vivo, human. Particulars: oral; 4 to 5 times the half-life. The source says: The half-life of CBD, administered orally, may be about […]. A steady state is may be reached about 10 days after regular dosing begins (i.e., 4 to 5 times the half-life). As such, with a 4 week treatment period all patients may achieve a steady state of CBD blood concentration.

In series [4] the test system is convulsive seizures. Particulars: participants with Dravet Syndrome and drug-resistant seizures; cited from earlier work.
Series [5] deals with seizures. The note with it: cited from earlier work; for median reduction (seizures): at 12 weeks.
In series [6] the test system is seizures. Particulars: of the 7 participants who received CBD; temporal-lobe epilepsy; cited from earlier work.
Series [7] has as its system seizures. Particulars: after 3 months of treatment; TSC and treatment-resistant epilepsy; cited from earlier work.
The conditions of series [8]: cited from earlier work.
The test system of series [9] is mice. The note with it: intraperitoneally or orally; cited from earlier work.
For series [10] the following is noted: in vivo; cited from earlier work.

Read-outs that look alike come from different tables or passages of the source.

As for `C=C(C)[C@@H]1CCC(C)=C[C@H]1c1c(O)cc(CCCCC)cc1O` [CBD, cannabidiol], in [1], the “suppression of focal seizures” value was “suppress some generalized and focal seizures”; the “suppression of generalized seizures” value is “suppress some generalized and focal seizures”. The “doses with no observed toxic effects” value in series [2] was “up to 320 mg/kg”. Besides, the “time to steady state after regular dosing begins” value in series [3] is “about 10 days”. In addition, in series [4], the “frequency of occurrence of convulsive seizures” value was “significantly reduced” and the “patients who became seizure free” value was “about 5%”. Also, in [5] (patients with DS), the “median reduction (seizures)” value is 49.8% and the “participants free of seizures in the last four weeks of treatment” value is given as 4 participants. Moreover, in series [5] (patients with LGS), the “median reduction (seizures)” value is listed as 36.8% and the “participants free of seizures in the last four weeks of treatment” value is on record as 1 participant. Further, in [6], the “participants seizure free during treatment” value was 4. Also, in series [7], the “median percent change in total weekly seizure frequency” value is −48.8%. Also, the “safety and tolerability in clinical trials” value in [8] (human, in vivo) was “safe and well tolerated across a wide dosage range”. Further, the “doses for which no significant adverse effects have been reported” value in [8] (p.o.) was “up to 1500 mg/day”. Also, the “dose-response of therapeutic benefits (anti-inflammatory and anti-nociceptive)” value in series [9] is on record as “bell-shaped dose-response”.

Regarding `CCCCCc1cc(O)c2c(c1)OC(C)(C)[C@@H]1CCC(C)=C[C@@H]21` [THC, Δ^9-tetrahydrocannabinol], in series [1], the “suppression of focal seizures” value is “suppress some generalized and focal seizures”; the “suppression of generalized seizures” value is “suppress some generalized and focal seizures”. The “doses at which psychotoxicity was observed” value in series [2] was “above 10 mg/kg”. Further, the “dose at which there may be psychotropic effects” value in series [10] is listed as 10 mg.

The values are drawn from patent US20210121435A1, “METHODS FOR TREATING SEIZURES IN EPILEPSY WITH A COMPOSITION COMPRISING CANNABINOIDS” (MEDRELEAF CORP., priority 2019, published 2021).
